Test results reported in ChEMBL document CHEMBL4840352 (J Med Chem, 2021).
Active and inactive are the calls of the source. No cut-off for these calls is given here.

Experiments:
[1] = target: Receptor tyrosine-protein kinase erbB-4 (Homo sapiens) (UniProt Q15303); settings: dose 1000.0 nM
Description: Inhibition of HER4 (unknown origin) at 1000 nM relative to control

[2] = test system: Receptor-type tyrosine-protein kinase FLT3 (Homo sapiens), P36888 [UNDEFINED MUTATION]; test: Induction of FLT3-ITD degradation in human MV4-11 cells assessed as accumulation of ubiquitinated FLT3-ITD at 15 nM preincubated for 4 hrs followed by MG132 addition for 2 hrs by immunoprecipitation assay; type: cell-based; settings: time 6.0 hrs
[3] = target: Aurora kinase A (Homo sapiens) (UniProt O14965); test: Inhibition of AURORA-A (unknown origin) at 1000 nM relative to control
[4] = test system: Receptor-type tyrosine-protein kinase FLT3 (Homo sapiens), P36888 [D835Y]; settings: dose 1000.0 nM
Description: Inhibition of FLT3 D835Y mutant (unknown origin) at 1000 nM relative to control

[5] = test system: MV4-11; test: Induction of apoptosis in human MV4-11 cells after 48 hrs by Annexin-V/PI staining based flow cytometry; type: functional, cell-based; settings: dose 1.25-10 nM
[6] = target: Serine/threonine-protein kinase Chk2 (Homo sapiens) (UniProt O96017); test: Inhibition of CHK2 (unknown origin) at 1000 nM relative to control
[7] = test system: Receptor-type tyrosine-protein kinase FLT3 (Homo sapiens), P36888 [UNDEFINED MUTATION]; test: Induction of FLT3-ITD degradation in human MV4-11 cells at 20 nM pretreated with pomalidomide for 2 hrs followed compound addition for 6 hrs by Western blot analysis; type: cell-based
[8] = Toxicity in NOD/SCID mouse xenografted with human MV4-11 cells assessed as effect on body weight at 3 mg/kg/day, iv administered for 12 hrs; type: organism-based; settings: in vivo
[9] = target: Receptor-type tyrosine-protein kinase FLT3 (Homo sapiens) (UniProt P36888); test: Inhibition of FLT3 in human MOLM-13 cells assessed as reduction in FLT3 phosphorylation at 15 nM by Western blot analysis; type: cell-based; settings: time 0-12 hrs, TDE = time-dependent effect
[10] = target: Vascular endothelial growth factor receptor 2 (Homo sapiens) (UniProt P35968); settings: dose 1000.0 nM
Description: Inhibition of KDR (unknown origin) at 1000 nM relative to control

[11] = target: Proto-oncogene tyrosine-protein kinase receptor Ret (Homo sapiens) (UniProt P07949); settings: dose 1000.0 nM
Sequence of Proto-oncogene tyrosine-protein kinase receptor Ret (Homo sapiens) (P07949 whole entry): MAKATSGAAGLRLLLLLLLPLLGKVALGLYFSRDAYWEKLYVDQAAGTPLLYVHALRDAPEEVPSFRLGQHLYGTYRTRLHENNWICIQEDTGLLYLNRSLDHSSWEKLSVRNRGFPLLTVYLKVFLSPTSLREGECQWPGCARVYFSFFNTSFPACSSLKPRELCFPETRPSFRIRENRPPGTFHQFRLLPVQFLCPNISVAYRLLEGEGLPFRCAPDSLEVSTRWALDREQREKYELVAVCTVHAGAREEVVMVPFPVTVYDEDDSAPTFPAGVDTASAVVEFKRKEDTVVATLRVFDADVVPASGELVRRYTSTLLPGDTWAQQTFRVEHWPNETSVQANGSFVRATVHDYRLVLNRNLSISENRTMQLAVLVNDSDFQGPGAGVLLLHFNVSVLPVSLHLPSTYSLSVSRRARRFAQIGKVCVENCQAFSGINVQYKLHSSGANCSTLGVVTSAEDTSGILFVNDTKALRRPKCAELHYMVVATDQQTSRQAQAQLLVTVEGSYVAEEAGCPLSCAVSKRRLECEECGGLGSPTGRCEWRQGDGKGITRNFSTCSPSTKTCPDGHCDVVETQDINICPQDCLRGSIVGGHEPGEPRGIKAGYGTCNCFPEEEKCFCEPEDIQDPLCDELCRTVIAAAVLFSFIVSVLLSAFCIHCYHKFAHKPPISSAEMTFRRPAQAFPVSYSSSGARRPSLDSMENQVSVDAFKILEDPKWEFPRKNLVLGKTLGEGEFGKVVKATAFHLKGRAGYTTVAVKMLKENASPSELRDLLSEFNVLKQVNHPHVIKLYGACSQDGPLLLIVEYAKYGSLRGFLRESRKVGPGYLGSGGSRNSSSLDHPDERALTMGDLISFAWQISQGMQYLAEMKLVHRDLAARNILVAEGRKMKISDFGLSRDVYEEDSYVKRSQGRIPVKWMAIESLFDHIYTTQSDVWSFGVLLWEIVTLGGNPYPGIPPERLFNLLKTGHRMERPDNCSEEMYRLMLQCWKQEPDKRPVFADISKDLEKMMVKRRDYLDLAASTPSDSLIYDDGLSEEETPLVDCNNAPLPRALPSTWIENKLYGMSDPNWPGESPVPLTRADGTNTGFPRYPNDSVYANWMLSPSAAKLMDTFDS
Description: Inhibition of RET (unknown origin) at 1000 nM relative to control

[12] = test system: MV4-11; test: Induction of apoptosis in human MV4-11 cells assessed as downregulation of Mcl-1 level at 15 nM measured upto 12 hrs by Western blot analysis; type: functional, cell-based; settings: time hrs <=12
[13] = target: Platelet-derived growth factor receptor beta (Homo sapiens) (UniProt P09619); test: Induction of PDGFR degradation in human MV4-11 cells at 0 to 25 nM after 24 hrs by Western blot analysis; type: cell-based; settings: dose 0-25 nM
[14] = target: Mitogen-activated protein kinase kinase kinase kinase 1 (Homo sapiens) (UniProt Q92918); test: Inhibition of HPK1 (unknown origin) at 1000 nM relative to control
Sequence of Mitogen-activated protein kinase kinase kinase kinase 1 (Homo sapiens) (Q92918 whole entry, looked up): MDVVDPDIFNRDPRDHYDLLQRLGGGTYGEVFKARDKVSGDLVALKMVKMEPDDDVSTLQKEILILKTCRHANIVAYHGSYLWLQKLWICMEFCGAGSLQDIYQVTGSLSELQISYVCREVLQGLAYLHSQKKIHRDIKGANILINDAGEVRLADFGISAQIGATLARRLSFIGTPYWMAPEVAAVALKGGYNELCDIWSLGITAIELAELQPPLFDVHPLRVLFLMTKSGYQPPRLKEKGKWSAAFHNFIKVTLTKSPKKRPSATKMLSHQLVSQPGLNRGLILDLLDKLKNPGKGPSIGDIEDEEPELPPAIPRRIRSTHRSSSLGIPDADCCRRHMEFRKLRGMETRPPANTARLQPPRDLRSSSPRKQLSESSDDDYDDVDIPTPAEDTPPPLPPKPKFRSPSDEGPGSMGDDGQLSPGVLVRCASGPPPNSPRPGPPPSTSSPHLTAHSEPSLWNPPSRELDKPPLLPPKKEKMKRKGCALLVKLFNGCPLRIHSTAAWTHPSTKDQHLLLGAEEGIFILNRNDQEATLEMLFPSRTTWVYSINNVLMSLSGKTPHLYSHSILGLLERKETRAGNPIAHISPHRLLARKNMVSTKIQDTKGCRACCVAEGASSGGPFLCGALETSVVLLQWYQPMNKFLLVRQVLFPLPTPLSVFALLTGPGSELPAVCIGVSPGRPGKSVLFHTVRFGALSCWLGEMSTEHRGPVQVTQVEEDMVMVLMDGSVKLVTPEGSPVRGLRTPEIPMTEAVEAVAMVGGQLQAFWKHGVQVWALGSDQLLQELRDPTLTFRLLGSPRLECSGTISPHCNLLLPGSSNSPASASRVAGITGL

[15] = test system: MV4-11; test: Antiproliferative activity against human MV4-11 cells incubated for 48 hrs by CCK-8 assay; type: functional, cell-based; settings: MV4-11, 48 h
[16] = test system: MV4-11; test: Induction of apoptosis in human MV4-11 cells assessed as upregulation of cleaved caspase-3 level at 15 nM by Western blot analysis; type: functional, cell-based; settings: time 0-12 hrs, TDE = time-dependent effect
[17] = target: Mast/stem cell growth factor receptor Kit (Homo sapiens) (UniProt P10721); test: Inhibition of KIT in human MV4-11 cells assessed as reduction in PI3K phosphorylation at 5 to 25 nM after 24 hrs by Western blot analysis; type: cell-based; settings: dose 5-25 nM
Sequence of Mast/stem cell growth factor receptor Kit (Homo sapiens) (P10721 whole entry): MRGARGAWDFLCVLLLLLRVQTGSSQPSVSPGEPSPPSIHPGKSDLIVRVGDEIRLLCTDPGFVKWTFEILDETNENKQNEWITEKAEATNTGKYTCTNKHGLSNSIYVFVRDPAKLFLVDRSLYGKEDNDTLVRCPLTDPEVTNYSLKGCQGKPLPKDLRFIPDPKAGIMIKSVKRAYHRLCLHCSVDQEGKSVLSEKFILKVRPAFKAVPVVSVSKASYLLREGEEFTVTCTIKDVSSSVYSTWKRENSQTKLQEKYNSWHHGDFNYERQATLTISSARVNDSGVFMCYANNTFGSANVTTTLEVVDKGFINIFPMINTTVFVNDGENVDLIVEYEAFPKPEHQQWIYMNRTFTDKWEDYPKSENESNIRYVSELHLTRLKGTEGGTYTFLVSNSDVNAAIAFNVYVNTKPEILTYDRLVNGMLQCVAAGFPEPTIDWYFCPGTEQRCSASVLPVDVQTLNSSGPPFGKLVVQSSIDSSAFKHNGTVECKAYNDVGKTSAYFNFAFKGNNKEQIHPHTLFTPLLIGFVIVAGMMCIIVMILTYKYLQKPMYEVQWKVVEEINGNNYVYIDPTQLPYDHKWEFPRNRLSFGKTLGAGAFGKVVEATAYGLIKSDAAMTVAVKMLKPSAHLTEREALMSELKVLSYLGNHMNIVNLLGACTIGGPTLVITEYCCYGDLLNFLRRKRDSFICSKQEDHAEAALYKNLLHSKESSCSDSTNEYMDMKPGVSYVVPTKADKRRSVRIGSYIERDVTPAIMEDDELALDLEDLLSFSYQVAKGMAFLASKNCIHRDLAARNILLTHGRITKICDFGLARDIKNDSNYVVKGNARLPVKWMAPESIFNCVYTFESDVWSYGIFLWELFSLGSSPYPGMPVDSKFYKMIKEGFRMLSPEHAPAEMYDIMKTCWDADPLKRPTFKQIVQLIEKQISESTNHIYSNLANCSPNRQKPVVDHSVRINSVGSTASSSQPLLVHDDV

[18] = test system: Receptor-type tyrosine-protein kinase FLT3 (Homo sapiens), P36888 [UNDEFINED MUTATION]; test: Induction of FLT3-ITD degradation in human MV4-11 cells at 20 nM pretreated with dov for 2 hrs followed compound addition for 6 hrs by Western blot analysis; type: cell-based
[19] = target: Rho-associated protein kinase 1 (Homo sapiens) (UniProt Q13464); test: Inhibition of ROCK1 (unknown origin) at 1000 nM relative to control
[20] = target: Mast/stem cell growth factor receptor Kit (Homo sapiens) (UniProt P10721); test: Induction of KIT degradation in human MOLM-13 cells at 0 to 25 nM after 24 hrs by Western blot analysis; type: cell-based; settings: dose 0-25 nM
[21] = target: Tyrosine-protein kinase receptor UFO (Homo sapiens) (UniProt P30530); settings: dose 1000.0 nM
Description: Inhibition of AXL (unknown origin) at 1000 nM relative to control

[22] = target: Receptor tyrosine-protein kinase erbB-2 (Homo sapiens) (UniProt P04626); test: Inhibition of HER2 (unknown origin) at 1000 nM relative to control
Sequence of Receptor tyrosine-protein kinase erbB-2 (Homo sapiens) (P04626 whole entry): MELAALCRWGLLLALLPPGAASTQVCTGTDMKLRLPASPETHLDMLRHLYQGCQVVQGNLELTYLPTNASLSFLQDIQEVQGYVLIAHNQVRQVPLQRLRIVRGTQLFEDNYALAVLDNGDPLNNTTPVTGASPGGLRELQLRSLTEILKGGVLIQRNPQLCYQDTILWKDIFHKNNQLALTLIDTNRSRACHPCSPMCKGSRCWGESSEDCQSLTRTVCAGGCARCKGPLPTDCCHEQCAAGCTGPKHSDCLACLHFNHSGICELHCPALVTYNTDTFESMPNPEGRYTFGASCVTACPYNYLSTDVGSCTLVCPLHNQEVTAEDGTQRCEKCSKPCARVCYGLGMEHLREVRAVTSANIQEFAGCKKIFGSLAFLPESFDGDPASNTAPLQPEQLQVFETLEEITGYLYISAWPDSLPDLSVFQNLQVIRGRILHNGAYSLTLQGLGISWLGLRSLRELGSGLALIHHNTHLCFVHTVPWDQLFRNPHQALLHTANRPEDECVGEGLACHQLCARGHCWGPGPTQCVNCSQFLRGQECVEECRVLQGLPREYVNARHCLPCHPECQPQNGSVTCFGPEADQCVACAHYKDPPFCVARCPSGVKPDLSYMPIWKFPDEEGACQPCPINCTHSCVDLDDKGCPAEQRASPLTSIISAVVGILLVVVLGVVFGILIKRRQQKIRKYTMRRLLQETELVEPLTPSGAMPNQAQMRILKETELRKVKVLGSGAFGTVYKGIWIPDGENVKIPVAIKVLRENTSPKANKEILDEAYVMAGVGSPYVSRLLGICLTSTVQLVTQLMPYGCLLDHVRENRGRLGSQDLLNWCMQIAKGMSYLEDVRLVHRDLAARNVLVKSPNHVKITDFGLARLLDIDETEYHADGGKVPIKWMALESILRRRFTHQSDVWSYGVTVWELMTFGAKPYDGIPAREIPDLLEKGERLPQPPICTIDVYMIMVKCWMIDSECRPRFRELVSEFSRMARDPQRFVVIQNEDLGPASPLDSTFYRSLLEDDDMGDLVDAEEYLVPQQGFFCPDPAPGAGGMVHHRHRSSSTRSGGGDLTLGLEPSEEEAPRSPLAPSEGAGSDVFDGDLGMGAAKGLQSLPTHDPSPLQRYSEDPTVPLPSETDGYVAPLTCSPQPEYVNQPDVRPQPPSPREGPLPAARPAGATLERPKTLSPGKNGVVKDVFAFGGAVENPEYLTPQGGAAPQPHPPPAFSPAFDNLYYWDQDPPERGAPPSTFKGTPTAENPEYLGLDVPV

[23] = target: Mast/stem cell growth factor receptor Kit (Homo sapiens) (UniProt P10721); test: Inhibition of KIT in human MOLM-13 cells assessed as reduction in STAT3 phosphorylation at 5 to 25 nM after 24 hrs by Western blot analysis; type: cell-based; settings: dose 5-25 nM
[24] = target: Tyrosine-protein kinase ITK/TSK (Homo sapiens) (UniProt Q08881); settings: dose 1000.0 nM
Description: Inhibition of ITK (unknown origin) at 1000 nM relative to control

[25] = test system: MOLM-13; test: Induction of apoptosis in human MOLM-13 cells after 48 hrs by Annexin-V/PI staining based flow cytometry; type: functional, cell-based; settings: dose 1.25-10 nM
[26] = test system: MV4-11; test: Induction of apoptosis in human MV4-11 cells assessed as downregulation of Bcl-2 level at 15 nM measured upto 12 hrs by Western blot analysis; type: functional, cell-based; settings: time hrs <=12
[27] = target: Receptor-type tyrosine-protein kinase FLT3 (Homo sapiens) (UniProt P36888); test: Inhibition of FLT3 in human MOLM-13 cells assessed as reduction in AKT phosphorylation at 15 nM by Western blot analysis; type: cell-based; settings: time 0-12 hrs, TDE = time-dependent effect
[28] = target: Receptor-type tyrosine-protein kinase FLT3 (Homo sapiens) (UniProt P36888); test: Inhibition of FLT3 in human MV4-11 cells assessed as reduction in FLT3 phosphorylation at 15 nM by Western blot analysis; type: cell-based; settings: time 0-12 hrs, TDE = time-dependent effect
[29] = target: RAC-alpha serine/threonine-protein kinase (Homo sapiens) (UniProt P31749); test: Inhibition of AKT1 (unknown origin) at 1000 nM relative to control
[30] = target: Mitogen-activated protein kinase kinase kinase 14 (Homo sapiens) (UniProt Q99558); test: Inhibition of NIK (unknown origin) at 1000 nM relative to control
[31] = target: Mitogen-activated protein kinase 8 (Homo sapiens) (UniProt P45983); test: Inhibition of JNK1 (unknown origin) at 1000 nM relative to control
Sequence of Mitogen-activated protein kinase 8 (Homo sapiens) (P45983 whole entry): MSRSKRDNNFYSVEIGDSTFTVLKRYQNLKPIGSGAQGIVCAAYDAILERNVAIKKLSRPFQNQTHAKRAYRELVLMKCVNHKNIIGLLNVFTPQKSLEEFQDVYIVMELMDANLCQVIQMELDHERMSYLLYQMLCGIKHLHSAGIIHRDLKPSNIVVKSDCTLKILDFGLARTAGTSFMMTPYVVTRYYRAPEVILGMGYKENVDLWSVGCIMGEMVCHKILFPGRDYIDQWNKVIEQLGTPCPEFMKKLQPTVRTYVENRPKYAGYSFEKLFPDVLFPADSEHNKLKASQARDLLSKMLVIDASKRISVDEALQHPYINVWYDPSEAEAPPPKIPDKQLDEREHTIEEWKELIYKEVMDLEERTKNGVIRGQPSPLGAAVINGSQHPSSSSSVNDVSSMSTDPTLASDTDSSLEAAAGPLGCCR

[32] = target: Mast/stem cell growth factor receptor Kit (Homo sapiens) (UniProt P10721); test: Inhibition of KIT (unknown origin) at 1000 nM relative to control
[33] = target: Hepatocyte growth factor receptor (Homo sapiens) (UniProt P08581); test: Inhibition of C-MET (unknown origin) at 1000 nM relative to control
[34] = target: Receptor-type tyrosine-protein kinase FLT3 (Homo sapiens) (UniProt P36888); test: Inhibition of FLT3 in human MOLM-13 cells assessed as reduction in STAT5 phosphorylation at 15 nM by Western blot analysis; type: cell-based; settings: time 0-12 hrs, TDE = time-dependent effect
[35] = target: Maternal embryonic leucine zipper kinase (Homo sapiens) (UniProt Q14680); test: Inhibition of MELK (unknown origin) at 1000 nM relative to control
[36] = target: Receptor-type tyrosine-protein kinase FLT3 (Homo sapiens) (UniProt P36888); test: Inhibition of FLT3 in human MOLM-13 cells assessed as reduction in ERK phosphorylation at 15 nM by Western blot analysis; type: cell-based; settings: time 0-12 hrs, TDE = time-dependent effect
[37] = target: Mitogen-activated protein kinase 3 (Homo sapiens) (UniProt P27361); test: Inhibition of ERK1 (unknown origin) at 1000 nM relative to control
[38] = target: Mitogen-activated protein kinase 1 (Homo sapiens) (UniProt P28482); test: Inhibition of MAPK2 (unknown origin) at 1000 nM relative to control
Sequence of Mitogen-activated protein kinase 1 (Homo sapiens) (P28482 whole entry): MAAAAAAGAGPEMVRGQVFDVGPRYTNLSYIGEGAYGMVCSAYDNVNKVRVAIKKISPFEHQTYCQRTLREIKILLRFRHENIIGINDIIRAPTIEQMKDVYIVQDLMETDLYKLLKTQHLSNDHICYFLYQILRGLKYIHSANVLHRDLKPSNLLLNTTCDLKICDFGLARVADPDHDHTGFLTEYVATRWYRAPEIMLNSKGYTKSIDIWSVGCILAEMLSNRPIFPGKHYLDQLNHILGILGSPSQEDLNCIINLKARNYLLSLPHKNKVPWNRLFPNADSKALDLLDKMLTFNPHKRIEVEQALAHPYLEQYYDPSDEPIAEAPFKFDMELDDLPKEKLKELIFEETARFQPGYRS

[39] = target: Receptor-type tyrosine-protein kinase FLT3 (Homo sapiens) (UniProt P36888); test: Inhibition of FLT3 in human MV4-11 cells assessed as reduction in AKT phosphorylation at 15 nM by Western blot analysis; type: cell-based; settings: time 0-12 hrs, TDE = time-dependent effect

inhibition [1]: 14%
Activity [2]: Active
inhibition [3]: 17%
inhibition [4]: 95%
inhibition [6]: 0%
Activity [7]: inactive
inhibition [9]: Tde
inhibition [10]: 69%
inhibition [11]: 39%
Activity [13]: Active
inhibition [14]: 49%
IC50 [15]: 9.2 nM
inhibition [17]: Active
Activity [18]: inactive
inhibition [19]: 4%
Activity [20]: Active
inhibition [21]: 20%
inhibition [22]: 50%
inhibition [23]: Active
inhibition [24]: 42%
inhibition [27]: Tde
inhibition [28]: Tde
inhibition [29]: 7%
inhibition [30]: 0%
inhibition [31]: -8%
inhibition [32]: 83%
inhibition [33]: 15%
inhibition [34]: Tde
inhibition [35]: 11%
inhibition [36]: Tde
inhibition [37]: 4%
inhibition [38]: 54%
inhibition [39]: Tde
SMILES: Nc1c(-c2nc3cc(N4CCN(C(=O)CCCCCNc5cccc6c5C(=O)N(C5CCC(=O)NC5=O)C6=O)CC4)ccc3[nH]2)c(=O)[nH]c2cccc(F)c12 (centres undefined)
Activity [5]: Dose-Dependent Effect
Activity [8]: Non-Toxic
Activity [12]: Active
Activity [16]: Tde
Activity [25]: Dose-Dependent Effect
Activity [26]: Active
